{"source": "patent US20040081688A1", "about": "“Amphiphilic lipid nanoparticles for peptide and/or protein incorporation” (priority 2000, published 2004)", "key": {"[1]": {"experiment": "Partition coefficient octanol/water", "type": "physicochemical", "details": "24 hours at room temperature, ratio of drug concentration in organic and water phase by RP-HPLC", "method": "Partition coefficient: it was determined using octanol as organic phase and water as hydrophilic phase. The two phases were first saturated with each other for 24 hours at room temperature. Antide was then dissolved in the water phase at a concentration well below saturation. An equal volume of organic phase was subsequently added to the water phase and the mixture was kept under stirring for 24 hours at room temperature. Antide concentration in the two phases was determined by RP-HPLC and the partition coefficient was obtained from the ratio between the drug concentration in organic and water phase.\nThe resulting octanol/water coefficient was 8.56·10^−2"}, "[2]": {"experiment": "Antide semi-quantitative solubility evaluation (maximum loading) in lipids", "type": "physicochemical", "details": "Antide maximum loading in the lipid named in the row"}}, "data": [{"compound": "N-Ac-D-2-Nal, D-pClPhe, D-3-Pal, Ser, NicLys, D-NicLys, Leu, Ilys, Pro, D-Ala, NH2 [Antide]", "values": [{"measurement": "octanol/water coefficient", "setting": "[1]", "value": "8.56·10^−2"}]}, {"compound": "CCCCCCCCCCCCCCCCO", "note": "[Cetil alcohol]", "values": [{"measurement": "Antide loading (%)", "setting": "[2]", "value": "3.7 × 10^−2 - not soluble %"}]}]}
